Data taken from ChEMBL document CHEMBL3525973, “Quantitative prediction of human intestinal glucuronidation effects on intestinal availability of UDP-glucuronosyltransferase substrates using in vitro data” (Drug Metab Dispos, 2012).

Tests used:
[1] = Unbound fraction during UGT-mediated glucuronidation in human intestinal microsomes
[2] = Intrinsic clearance in human intestinal microsomes assessed UGT-mediated glucuronidation clearance
[3] = Unbound intrinsic clearance in human intestinal microsomes assessed UGT-mediated glucuronidation clearance
[4] = Unbound fraction during CYP4500-mediated metabolism in human intestinal microsomes
[5] = Intrinsic clearance in human intestinal microsomes assessed CYP450-mediated glucuronidation clearance
[6] = Unbound intrinsic clearance in human intestinal microsomes assessed CYP450-mediated glucuronidation clearance
[7] = biological target: T1, UDP-glucuronosyltransferase 1A8 (Homo sapiens, UniProt Q9HAW9); assay: Activity of human UGT1A8 expressed in insect cells assessed as reduction in compound level after 30 mins; type: ADME; settings: 0.5 h
T1 sequence (Q9HAW9 whole entry): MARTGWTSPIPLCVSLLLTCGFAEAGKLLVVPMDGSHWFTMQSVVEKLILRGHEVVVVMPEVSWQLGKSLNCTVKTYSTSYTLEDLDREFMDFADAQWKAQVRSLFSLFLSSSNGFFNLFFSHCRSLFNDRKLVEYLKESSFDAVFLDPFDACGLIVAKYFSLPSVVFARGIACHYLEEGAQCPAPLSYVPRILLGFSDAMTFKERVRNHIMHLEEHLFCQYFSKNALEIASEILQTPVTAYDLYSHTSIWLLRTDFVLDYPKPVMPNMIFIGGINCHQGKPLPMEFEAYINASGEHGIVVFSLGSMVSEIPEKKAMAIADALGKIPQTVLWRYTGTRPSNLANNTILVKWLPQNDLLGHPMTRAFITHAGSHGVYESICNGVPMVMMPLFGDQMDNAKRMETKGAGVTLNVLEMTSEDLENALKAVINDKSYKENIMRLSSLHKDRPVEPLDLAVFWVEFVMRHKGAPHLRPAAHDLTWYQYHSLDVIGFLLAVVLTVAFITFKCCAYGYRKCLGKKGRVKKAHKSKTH

[8] = biological target: T2, UDP-glucuronosyltransferase 1A10 (Homo sapiens, UniProt Q9HAW8); assay: Activity of human UGT1A10 expressed in insect cells assessed as reduction in compound level after 30 mins; type: ADME; settings: 0.5 h
T2 sequence (Q9HAW8 whole entry): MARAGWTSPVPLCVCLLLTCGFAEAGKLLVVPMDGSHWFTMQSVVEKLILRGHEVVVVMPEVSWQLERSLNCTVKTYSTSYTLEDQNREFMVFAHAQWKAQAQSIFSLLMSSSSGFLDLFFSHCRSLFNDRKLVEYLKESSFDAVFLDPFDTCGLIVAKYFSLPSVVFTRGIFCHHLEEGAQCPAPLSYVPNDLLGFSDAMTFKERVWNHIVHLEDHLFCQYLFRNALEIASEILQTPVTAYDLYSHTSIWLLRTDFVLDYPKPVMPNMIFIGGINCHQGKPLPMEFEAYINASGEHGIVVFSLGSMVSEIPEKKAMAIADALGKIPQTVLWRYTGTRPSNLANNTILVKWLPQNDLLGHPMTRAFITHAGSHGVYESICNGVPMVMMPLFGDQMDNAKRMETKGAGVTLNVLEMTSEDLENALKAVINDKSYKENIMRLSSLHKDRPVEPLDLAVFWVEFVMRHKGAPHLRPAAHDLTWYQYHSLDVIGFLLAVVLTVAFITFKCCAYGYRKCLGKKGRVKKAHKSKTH

[9] = Apparent permeability by PAMPA method
in vitro = settings: human, blood and plasma
Description: Ratio of drug level in blood to plasma in human

[10] = biological target: T3, UDP-glucuronosyltransferase 1A1 (Homo sapiens, UniProt P22309); assay: Activity of human UGT1A1 expressed in insect cells assessed as reduction in compound level after 30 mins; type: ADME; settings: 0.5 h
T3 sequence (P22309 whole entry): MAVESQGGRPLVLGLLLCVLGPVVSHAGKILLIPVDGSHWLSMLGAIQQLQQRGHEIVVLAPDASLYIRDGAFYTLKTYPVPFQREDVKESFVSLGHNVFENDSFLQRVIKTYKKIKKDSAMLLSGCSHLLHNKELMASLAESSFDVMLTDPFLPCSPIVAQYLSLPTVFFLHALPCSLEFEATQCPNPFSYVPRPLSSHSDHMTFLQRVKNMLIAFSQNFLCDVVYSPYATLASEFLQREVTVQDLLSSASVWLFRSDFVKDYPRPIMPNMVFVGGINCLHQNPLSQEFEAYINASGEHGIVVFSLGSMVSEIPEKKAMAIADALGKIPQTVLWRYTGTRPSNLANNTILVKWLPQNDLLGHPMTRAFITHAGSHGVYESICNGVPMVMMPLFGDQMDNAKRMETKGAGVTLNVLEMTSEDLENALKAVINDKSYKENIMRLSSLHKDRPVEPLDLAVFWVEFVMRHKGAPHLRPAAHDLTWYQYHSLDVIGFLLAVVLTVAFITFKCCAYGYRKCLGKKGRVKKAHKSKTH

[11] = Oral bioavailability in human; type: ADME, organism-based; settings: in vivo
[12] = biological target: T4, UDP-glucuronosyltransferase 1A3 (Homo sapiens, UniProt P35503); assay: Activity of human UGT1A3 expressed in insect cells assessed as reduction in compound level after 30 mins; type: ADME; settings: 0.5 h
T4 sequence (P35503 whole entry): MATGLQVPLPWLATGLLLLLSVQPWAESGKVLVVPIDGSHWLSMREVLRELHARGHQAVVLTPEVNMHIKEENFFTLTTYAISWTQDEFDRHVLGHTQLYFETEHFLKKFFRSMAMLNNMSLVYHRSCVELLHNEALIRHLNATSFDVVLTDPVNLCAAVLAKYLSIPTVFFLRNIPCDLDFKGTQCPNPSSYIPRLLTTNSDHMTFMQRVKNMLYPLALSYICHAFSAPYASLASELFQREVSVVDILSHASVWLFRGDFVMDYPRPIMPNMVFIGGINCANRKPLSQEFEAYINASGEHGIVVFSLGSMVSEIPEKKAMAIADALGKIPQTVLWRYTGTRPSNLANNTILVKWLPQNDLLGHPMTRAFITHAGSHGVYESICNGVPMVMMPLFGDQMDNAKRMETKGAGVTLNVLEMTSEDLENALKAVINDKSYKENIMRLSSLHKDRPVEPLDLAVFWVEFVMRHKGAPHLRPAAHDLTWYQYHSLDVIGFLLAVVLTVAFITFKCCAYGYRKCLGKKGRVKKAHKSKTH

[13] = Drug absorption in po dosed human; type: ADME, organism-based; settings: in vivo, read-out: Drug absorption
clinical [14] = settings: human, in vivo, po
[15] = biological target: T5, UDP-glucuronosyltransferase 1A9 (Homo sapiens, UniProt O60656); assay: Activity of human UGT1A9 expressed in insect cells assessed as reduction in compound level after 30 mins; type: ADME; settings: 0.5 h
T5 sequence (O60656 whole entry): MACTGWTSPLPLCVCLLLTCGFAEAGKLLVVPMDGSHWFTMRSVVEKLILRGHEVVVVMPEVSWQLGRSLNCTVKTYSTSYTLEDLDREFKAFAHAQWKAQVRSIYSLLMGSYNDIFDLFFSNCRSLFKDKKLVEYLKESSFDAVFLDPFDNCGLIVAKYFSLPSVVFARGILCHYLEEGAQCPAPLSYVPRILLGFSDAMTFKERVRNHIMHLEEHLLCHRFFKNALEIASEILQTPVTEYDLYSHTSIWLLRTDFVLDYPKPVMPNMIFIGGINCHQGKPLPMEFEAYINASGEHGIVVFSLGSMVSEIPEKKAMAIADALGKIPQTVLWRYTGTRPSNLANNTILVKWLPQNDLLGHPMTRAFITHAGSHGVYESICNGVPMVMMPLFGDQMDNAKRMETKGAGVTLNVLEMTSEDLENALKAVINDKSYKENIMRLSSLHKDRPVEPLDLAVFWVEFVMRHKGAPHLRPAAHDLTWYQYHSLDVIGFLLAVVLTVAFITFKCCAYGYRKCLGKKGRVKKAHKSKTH

clinical [16] = settings: human, in vivo
clinical [17] = settings: human, in vivo; remark: listed apart in the source
[18] = biological target: T6, UDP-glucuronosyltransferase 2B7 (Homo sapiens, UniProt P16662); assay: Activity of human UGT2B7 expressed in insect cells assessed as reduction in compound level after 30 mins; type: ADME; settings: 0.5 h
T6 sequence (P16662 whole entry): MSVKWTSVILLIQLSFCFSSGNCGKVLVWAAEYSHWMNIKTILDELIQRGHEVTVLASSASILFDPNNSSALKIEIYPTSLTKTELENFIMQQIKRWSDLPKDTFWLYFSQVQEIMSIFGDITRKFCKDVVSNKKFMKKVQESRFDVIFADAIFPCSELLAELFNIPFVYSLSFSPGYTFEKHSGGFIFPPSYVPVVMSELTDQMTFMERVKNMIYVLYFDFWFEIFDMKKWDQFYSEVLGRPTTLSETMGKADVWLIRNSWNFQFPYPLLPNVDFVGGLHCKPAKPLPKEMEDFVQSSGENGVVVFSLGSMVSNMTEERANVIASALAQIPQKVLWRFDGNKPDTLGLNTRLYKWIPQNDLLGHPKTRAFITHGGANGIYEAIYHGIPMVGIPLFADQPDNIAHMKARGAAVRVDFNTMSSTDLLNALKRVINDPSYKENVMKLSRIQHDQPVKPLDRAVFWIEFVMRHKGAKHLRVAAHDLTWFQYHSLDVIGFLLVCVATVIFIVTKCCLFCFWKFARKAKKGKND

## O=C(c1ccc(OCCN2CCCCC2)cc1)c1c(-c2ccc(O)cc2)sc2cc(O)ccc12 [RALOXIFENE]
[1]; intestinal microsomes
  fraction unbound: 0.98
[2]; microsomes
  CL: 2180 µL/min/mg
[3]
  CL free: 2224 µL/min/mg
[4]
  fraction unbound: 0.43
[5]; intestinal microsomes
  microsomal CLint: 8.9 µL/min/mg
[6]
  CL free: 20.7 µL/min/mg
[7]
  Drug metabolism: metabolite_detected
[8]
  Drug metabolism: metabolite_detected
[9]
  Papp: 3 ×10⁻⁶ cm/s

## CCCc1nc2c(C)cc(-c3nc4ccccc4n3C)cc2n1Cc1ccc(-c2ccccc2C(=O)O)cc1
[1]; microsomes
  fraction unbound: 0.92
[2]; intestinal microsomes
  microsomal CLint: 20 µL/min/mg
[3]
  CL free: 21.7 µL/min/mg
[9]
  Papp: > 30 ×10⁻⁶ cm/s
In vitro
  blood plasma ratio: 0.67

## Cc1c(-c2ccc(O)cc2)n(Cc2ccc(OCCN3CCCCCC3)cc2)c2ccc(O)cc12 [BAZEDOXIFENE]
[10]
  Drug metabolism: metabolite_detected
[7]
  Drug metabolism: metabolite_detected
[8]
  Drug metabolism: metabolite_detected
[9]
  Papp: 20 ×10⁻⁶ cm/s
[11]
  bioavailability: 6.2%

## O=c1c(O)c(-c2ccc(O)c(O)c2)oc2cc(O)cc(O)c12 [QUERCETIN]
[1]; intestinal microsomes
  fraction unbound: 0.9
[2]; intestinal microsomes
  microsomal CLint: 4620 µL/min/mg
[3]
  CL free: 5133 µL/min/mg
[12]
  Drug metabolism: metabolite_detected
[10]
  Drug metabolism: metabolite_detected
[13]
  Fa: 65%
[9]
  Papp: < 1.5 ×10⁻⁶ cm/s
Clinical [14]
  CL/F: 8330 mL/min/kg
In vitro
  blood plasma ratio: 1

## Cc1ncc2n1-c1ccc(Cl)cc1C(c1ccccc1F)=NC2 [MIDAZOLAM]
[5]; microsomes
  microsomal CLint: 153 µL/min/mg

## Cc1ccc(C(=O)c2cc(O)c(O)c([N+](=O)[O-])c2)cc1 [TOLCAPONE]
[1]; intestinal microsomes
  fraction unbound: 0.39
[2]; intestinal microsomes
  microsomal CLint: 40 µL/min/mg
[3]
  CL free: 103 µL/min/mg
[15]
  Drug metabolism: metabolite_detected
[9]
  Papp: 18 ×10⁻⁶ cm/s
In vitro
  blood plasma ratio: 0.61

## CCN(CC)C(=O)/C(C#N)=C/c1cc(O)c(O)c([N+](=O)[O-])c1 [ENTACAPONE]
[1]; intestinal microsomes
  fraction unbound: 1
[2]; intestinal microsomes
  microsomal CLint: 27 µL/min/mg
[3]
  CL free: 27 µL/min/mg
[9]
  Papp: 4.1 ×10⁻⁶ cm/s
In vitro
  blood plasma ratio: 0.59

## COc1ccc2c(c1)c(CC(=O)O)c(C)n2C(=O)c1ccc(Cl)cc1 [INDOMETHACIN]
[1]; microsomes
  fraction unbound: 0.8
[2]; intestinal microsomes
  microsomal CLint: 4.2 µL/min/mg
[3]
  CL free: 5.2 µL/min/mg
[15]
  Drug metabolism: metabolite_detected
[9]
  Papp: 22 ×10⁻⁶ cm/s
Clinical [16]
  clearance: 1.4 mL/min/kg
In vitro
  blood plasma ratio: 0.55
Clinical [17]
  CL renal: 0.21 mL/min/kg

## O=C(O)Cc1ccccc1Nc1c(Cl)cccc1Cl [DICLOFENAC]
[1]; microsomes
  fraction unbound: 0.94
[2]; microsomes
  microsomal CLint: 59 µL/min/mg
[3]
  CL free: 62.7 µL/min/mg
[5]; microsomes
  CL: metabolite_not_detected
[6]
  CL free: metabolite_not_detected
[18]
  Drug metabolism: metabolite_detected

## CCc1cccc2c3c([nH]c12)C(CC)(CC(=O)O)OCC3 (configuration not stated) [ETODOLAC]
[2]; intestinal microsomes
  microsomal CLint: 6.2 µL/min/mg
[3]
  CL free: 5.7 µL/min/mg
[15]
  Drug metabolism: metabolite_detected
[9]
  Papp: 23 ×10⁻⁶ cm/s
[11]
  bioavailability: 80%
Clinical [14]
  CL/F: 0.82 mL/min/kg
Clinical [16]
  clearance: 0.66 mL/min/kg
In vitro
  blood plasma ratio: 0.55
